Results taken from patent publication US20230003717A1, “USE OF SYNAPTOTAGMIN-7 IN THE DIAGNOSIS AND TREATMENT OF BIPOLAR DISORDER” (TSINGHUA UNIVERSITY, priority 2020, published 2023).

Tests used:
Assay type in all cases: in vivo
Syt7 KO mice [1] = experiment: forced swim test (FST), Syt7 KO mice; settings: 30 mg/kg intraperitoneal, night phase and day phase
Description: (§1) The 11 genes in the DG region of the mice were knocked down using shRNA virus. The mice were subject to a forced swim test (FST), and the immobility time of the mice was analyzed. The immobility time is an indicator that reflects the feeling of despair of the mice, and a longer immobility time indicates a more serious feeling of despair. The result is shown in panel C in FIG. 1.
The behaviors of Syt7 KO mice (i.e., Syt7-knockout mice) were then examined in the FST test.
Syt7 KO mice were first treated with the atypical antipsychotic olanzapine (OLZ) and observed for the dose dependence (administered with doses of 0.2 mg/kg, 0.5 mg/kg and 1.0 mg/kg) (using ANOVA statistical method). […] Without being limited by theory, this may be associated with an antidepressant effect of olanzapine in treating BD patients.
(§2) The effect of clinical BD treatment lithium on behavioral abnormalities in Syt7 KO mice was then tested.

WT mice [2] = experiment: forced swim test (FST), WT mice; settings: 30 mg/kg intraperitoneal, night phase and day phase
Description: as §1, §2

Syt7 KO mice [3] = experiment: learned helplessness (LH) test, Syt7 KO mice; settings: 30 mg/kg intraperitoneal, night phase and day phase, vs untreated control
Description: (§3) Considering that the FST/TS tests can not represent all the characterizations of human disease, a learned helplessness (LH) test and a sucrose preference test (SPT) were conducted. LH is associated with depression. In the LH test, the escape failure number of mice is an indicator for determining the depression of animal due to external pressure. A higher escape failure number indicates a more significant depression. SPT is associated with anhedonia. The proportion of sucrose preference of the mice can serve as an indicator for determining the anhedonia severity of the mice. A higher proportion of sweet preference indicates an enhancement in hedonic feeling.
(§4) Then, the LH/SPT/LDB behavioral paradigms were adopted for detecting the effect of high-dose olanzapine treatment (1.0 mg/kg) on abnormal behaviors of the Syt7 KO mice.
as §2

WT mice [4] = experiment: learned helplessness (LH) test, WT mice; settings: 30 mg/kg intraperitoneal, night phase and day phase, vs untreated control
Description: as §3, §4, §2

Syt7 KO mice [5] = experiment: sucrose preference test (SPT), Syt7 KO mice; settings: 30 mg/kg intraperitoneal, night phase and day phase, vs untreated control
Description: as §3, §4, §2

WT mice [6] = experiment: sucrose preference test (SPT), WT mice; settings: 30 mg/kg intraperitoneal, night phase and day phase, vs untreated control
Description: as §3, §4, §2

Syt7 KO mice [7] = experiment: light-dark box (LDB) test, Syt7 KO mice; settings: 30 mg/kg intraperitoneal, night phase and day phase
Description: (§5) Since BD patients often had clinical symptoms of anxiety, a light-dark box (LDB) test was conducted to observe anxiety-like behaviors in the Syt7 KO mice.
as §4, §2

WT mice [8] = experiment: light-dark box (LDB) test, WT mice; settings: 30 mg/kg intraperitoneal
Description: as §5, §4, §2

## O=C([O-])[O-].[Li+].[Li+] [Li2CO3]
Syt7 KO mice [1]
  immobility time in FST: no effect
WT mice [2]
  immobility time in FST: no effect
Syt7 KO mice [3]
  escape numbers in LH test: increased escape numbers
WT mice [4]
  escape numbers in LH test: increased escape numbers
Syt7 KO mice [5]
  sucrose preference (SPT): decreased sucrose preference
WT mice [6]
  sucrose preference (SPT): decreased sucrose preference
Syt7 KO mice [7]
  time spent in the light compartment in the LDB test: reducing the time spent in the light compartment
WT mice [8]
  time spent in the light compartment in the LDB test: no effect on WT
